The values below come from publication PMC5923399 (Marine Drugs, 2018).

The structures appear in SMILES notation. Like-named read-outs stand apart in the source and are kept apart here. Where a SMILES comes first, the peptide text is derived from it. Bridges are numbered along the chain shown (N, C = ends).

Test [1] has as its target T1, rat α3β2 nAChRs (Rattus norvegicus, UniProt P04757+P12390).
T1 construct: expressed in transfected cells; host or cells: Xenopus oocytes (cRNA injection)
The experiment in a line: cell-based.

In test [2] the target is T2, α2β2 nAChR (Rattus norvegicus, UniProt P12389+P12390).
T2 construct: expressed in transfected cells; host or cells: Xenopus oocytes (cRNA injection)
Put plainly: cell-based.

Test [3] addresses T3, α2β4 nAChR (Rattus norvegicus, UniProt P12389+P12392).
T3 construct: expressed in transfected cells; host or cells: Xenopus oocytes (cRNA injection)
The experiment in a line: cell-based.

In test [4] the target is T4, α3β4 nAChR (Rattus norvegicus, UniProt P04757+P12392).
T4 construct: expressed in transfected cells; host or cells: Xenopus oocytes (cRNA injection)
The experiment in a line: cell-based.

The target in test [5] is T5, α4β2 nAChR (Rattus norvegicus, UniProt P09483+P12390).
T5 construct: expressed in transfected cells; host or cells: Xenopus oocytes (cRNA injection)
Put plainly: cell-based.

Test [6] addresses T6, α4β4 nAChR (Rattus norvegicus, UniProt P09483+P12392).
T6 construct: expressed in transfected cells; host or cells: Xenopus oocytes (cRNA injection)
The experiment in a line: cell-based.

Test [7] concerns the target T7, α7 nAChR (Rattus norvegicus, UniProt Q05941).
T7 construct: expressed in transfected cells; host or cells: Xenopus oocytes (cRNA injection)
Put plainly: cell-based.

The target in test [8] is T8, α9α10 nAChR (Rattus norvegicus, UniProt P43144+Q9JLB5).
T8 construct: expressed in transfected cells; host or cells: Xenopus oocytes (cRNA injection)
The experiment in a line: cell-based.

The target in test [9] is T9, GABABR-coupled Cav2.2 (Homo sapiens, UniProt O75899+Q9UBS5).
T9 construct: expressed in transfected cells; host or cells: HEK293T cells, transient transfection; GABAB subunit plasmids from David J. Adams, University of Wollongong
Put plainly: cell-based. On the set-up: species or system human GABABR and rat Cav2.2.

Test [10] addresses T8, α9α10 nAChR. To be noted: read-out: IC50 α9α10; cited from earlier work.

T9 sequence (Q9UBS5 15-961 limits assumed): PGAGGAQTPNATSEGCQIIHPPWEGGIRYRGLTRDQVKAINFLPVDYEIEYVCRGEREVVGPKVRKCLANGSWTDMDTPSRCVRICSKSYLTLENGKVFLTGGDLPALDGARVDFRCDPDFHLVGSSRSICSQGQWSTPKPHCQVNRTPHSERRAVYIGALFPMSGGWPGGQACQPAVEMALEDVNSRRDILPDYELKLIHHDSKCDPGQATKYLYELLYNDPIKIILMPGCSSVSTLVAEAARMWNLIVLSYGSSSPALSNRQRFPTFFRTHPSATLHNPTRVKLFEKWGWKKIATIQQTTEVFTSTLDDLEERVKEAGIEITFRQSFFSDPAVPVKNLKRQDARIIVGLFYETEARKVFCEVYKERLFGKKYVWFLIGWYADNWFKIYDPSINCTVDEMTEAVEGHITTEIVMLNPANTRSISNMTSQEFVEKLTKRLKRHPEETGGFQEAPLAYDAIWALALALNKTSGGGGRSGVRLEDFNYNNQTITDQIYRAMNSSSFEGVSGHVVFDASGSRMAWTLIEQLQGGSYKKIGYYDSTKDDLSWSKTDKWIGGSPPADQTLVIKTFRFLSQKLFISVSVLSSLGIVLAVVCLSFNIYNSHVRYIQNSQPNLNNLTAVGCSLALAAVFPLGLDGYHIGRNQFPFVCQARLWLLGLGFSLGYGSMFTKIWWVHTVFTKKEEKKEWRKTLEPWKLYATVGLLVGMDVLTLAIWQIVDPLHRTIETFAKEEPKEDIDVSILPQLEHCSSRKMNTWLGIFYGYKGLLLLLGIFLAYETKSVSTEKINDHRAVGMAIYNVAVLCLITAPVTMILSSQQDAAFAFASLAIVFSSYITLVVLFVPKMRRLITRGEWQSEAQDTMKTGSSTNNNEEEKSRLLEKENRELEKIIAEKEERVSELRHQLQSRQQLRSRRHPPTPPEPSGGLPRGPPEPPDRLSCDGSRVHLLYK
T9 sequence (O75899 42-941): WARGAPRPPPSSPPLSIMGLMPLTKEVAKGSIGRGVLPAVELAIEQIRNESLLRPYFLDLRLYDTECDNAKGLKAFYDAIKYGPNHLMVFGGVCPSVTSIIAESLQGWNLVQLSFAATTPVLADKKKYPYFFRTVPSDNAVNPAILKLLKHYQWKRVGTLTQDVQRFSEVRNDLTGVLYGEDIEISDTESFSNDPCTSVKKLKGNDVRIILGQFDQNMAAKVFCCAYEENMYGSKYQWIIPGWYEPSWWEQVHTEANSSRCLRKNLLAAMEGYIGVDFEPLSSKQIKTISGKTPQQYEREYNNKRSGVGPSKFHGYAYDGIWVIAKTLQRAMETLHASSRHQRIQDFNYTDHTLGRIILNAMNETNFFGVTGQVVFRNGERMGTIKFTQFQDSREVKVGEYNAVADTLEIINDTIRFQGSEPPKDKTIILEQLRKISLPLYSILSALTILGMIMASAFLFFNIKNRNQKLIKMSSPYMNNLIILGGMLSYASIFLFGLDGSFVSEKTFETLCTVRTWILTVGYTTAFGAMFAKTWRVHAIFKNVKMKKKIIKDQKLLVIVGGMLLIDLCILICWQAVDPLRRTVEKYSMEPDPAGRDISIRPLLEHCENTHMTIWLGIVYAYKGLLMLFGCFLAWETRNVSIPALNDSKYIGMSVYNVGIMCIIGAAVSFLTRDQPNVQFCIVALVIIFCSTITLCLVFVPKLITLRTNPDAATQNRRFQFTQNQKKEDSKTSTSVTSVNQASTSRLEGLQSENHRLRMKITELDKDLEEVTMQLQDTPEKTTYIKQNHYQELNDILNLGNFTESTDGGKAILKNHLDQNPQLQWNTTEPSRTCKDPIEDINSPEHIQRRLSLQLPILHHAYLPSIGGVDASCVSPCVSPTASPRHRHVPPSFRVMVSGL
T1 sequence (P04757 26-499 limits assumed): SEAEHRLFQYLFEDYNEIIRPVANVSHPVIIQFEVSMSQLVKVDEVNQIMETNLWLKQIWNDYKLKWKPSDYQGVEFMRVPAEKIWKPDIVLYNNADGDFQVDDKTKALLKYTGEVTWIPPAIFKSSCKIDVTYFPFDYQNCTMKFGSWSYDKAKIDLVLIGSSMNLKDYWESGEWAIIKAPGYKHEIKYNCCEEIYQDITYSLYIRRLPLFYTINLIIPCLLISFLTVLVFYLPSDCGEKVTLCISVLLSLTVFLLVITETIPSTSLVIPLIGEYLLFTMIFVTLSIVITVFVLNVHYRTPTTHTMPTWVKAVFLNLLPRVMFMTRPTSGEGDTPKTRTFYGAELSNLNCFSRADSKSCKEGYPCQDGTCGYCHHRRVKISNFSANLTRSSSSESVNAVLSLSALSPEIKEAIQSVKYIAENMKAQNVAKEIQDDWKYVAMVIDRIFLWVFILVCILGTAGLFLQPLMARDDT
T1 sequence (P12390 25-500 limits assumed): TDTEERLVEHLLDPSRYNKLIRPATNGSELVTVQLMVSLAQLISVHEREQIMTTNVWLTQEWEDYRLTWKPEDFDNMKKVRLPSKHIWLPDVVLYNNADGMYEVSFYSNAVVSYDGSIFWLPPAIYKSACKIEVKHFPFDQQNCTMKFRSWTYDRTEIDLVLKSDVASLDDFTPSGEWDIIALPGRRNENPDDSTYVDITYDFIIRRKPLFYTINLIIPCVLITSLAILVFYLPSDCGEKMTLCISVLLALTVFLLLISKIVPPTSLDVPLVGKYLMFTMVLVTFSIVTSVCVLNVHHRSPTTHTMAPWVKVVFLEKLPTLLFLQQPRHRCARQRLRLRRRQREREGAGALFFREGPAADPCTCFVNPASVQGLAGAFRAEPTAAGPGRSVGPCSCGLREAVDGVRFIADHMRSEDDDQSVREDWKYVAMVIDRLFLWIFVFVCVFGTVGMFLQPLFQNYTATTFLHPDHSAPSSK
T8 sequence (P43144 26-479 limits assumed): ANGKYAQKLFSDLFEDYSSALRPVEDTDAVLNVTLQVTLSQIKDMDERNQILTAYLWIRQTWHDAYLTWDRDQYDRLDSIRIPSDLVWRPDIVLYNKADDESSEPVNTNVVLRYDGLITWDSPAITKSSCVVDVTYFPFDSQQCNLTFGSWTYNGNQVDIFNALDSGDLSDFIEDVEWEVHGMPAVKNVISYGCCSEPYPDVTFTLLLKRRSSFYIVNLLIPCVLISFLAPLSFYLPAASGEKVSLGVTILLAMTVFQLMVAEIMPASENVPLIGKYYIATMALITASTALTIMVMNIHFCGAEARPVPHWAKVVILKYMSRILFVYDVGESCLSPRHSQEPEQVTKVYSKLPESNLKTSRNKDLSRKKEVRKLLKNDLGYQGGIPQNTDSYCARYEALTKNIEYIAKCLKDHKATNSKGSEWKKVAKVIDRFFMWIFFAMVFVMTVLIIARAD
T8 sequence (Q9JLB5 25-447 limits assumed): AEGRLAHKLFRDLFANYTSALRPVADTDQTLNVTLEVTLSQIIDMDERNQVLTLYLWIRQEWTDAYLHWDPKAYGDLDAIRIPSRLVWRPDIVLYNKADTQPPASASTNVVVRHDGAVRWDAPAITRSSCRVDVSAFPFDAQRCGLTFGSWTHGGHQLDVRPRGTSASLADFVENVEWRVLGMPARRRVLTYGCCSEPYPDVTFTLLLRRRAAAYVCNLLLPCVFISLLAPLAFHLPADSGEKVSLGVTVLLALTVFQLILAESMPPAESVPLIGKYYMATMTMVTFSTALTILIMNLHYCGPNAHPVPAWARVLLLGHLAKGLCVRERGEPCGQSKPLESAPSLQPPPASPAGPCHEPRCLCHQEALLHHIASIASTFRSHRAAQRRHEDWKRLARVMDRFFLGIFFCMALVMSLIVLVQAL
T7 sequence (Q05941 23-502 limits assumed): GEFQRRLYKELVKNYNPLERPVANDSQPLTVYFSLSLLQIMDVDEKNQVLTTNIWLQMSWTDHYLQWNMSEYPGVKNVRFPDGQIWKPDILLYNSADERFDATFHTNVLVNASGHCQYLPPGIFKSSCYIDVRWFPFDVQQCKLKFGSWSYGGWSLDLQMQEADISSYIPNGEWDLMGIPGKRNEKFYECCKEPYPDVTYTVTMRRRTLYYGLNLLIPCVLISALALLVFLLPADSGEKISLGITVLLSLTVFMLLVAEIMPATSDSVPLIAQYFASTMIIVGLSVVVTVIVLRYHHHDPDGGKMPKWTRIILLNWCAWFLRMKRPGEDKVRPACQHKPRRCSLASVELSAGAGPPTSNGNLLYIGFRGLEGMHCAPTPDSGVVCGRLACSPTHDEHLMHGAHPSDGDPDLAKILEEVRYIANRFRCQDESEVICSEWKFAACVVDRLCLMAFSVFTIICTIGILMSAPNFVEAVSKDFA
T5 sequence (P09483 31-630 limits assumed): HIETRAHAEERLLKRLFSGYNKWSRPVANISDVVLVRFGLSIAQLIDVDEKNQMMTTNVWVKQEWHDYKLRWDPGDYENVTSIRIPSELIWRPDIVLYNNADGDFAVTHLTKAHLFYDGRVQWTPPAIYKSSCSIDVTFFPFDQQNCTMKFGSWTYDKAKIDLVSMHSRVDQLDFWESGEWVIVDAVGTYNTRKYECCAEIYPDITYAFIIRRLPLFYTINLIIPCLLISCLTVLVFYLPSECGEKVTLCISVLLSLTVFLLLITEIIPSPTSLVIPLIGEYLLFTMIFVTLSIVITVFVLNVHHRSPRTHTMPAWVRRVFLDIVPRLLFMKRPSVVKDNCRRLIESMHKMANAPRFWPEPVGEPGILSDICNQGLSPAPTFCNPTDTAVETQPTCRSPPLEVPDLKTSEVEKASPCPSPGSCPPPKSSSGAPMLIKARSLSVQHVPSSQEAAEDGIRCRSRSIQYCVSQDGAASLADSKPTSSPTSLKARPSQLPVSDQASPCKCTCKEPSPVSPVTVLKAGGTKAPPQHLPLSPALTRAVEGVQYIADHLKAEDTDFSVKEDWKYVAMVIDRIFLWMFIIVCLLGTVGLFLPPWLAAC
T5 sequence (P12390 25-500 limits assumed): as the sequence (P12390 25-500 limits assumed) above

By IC50 is commonly meant the concentration that gives 50% inhibition. In general, inhibition refers to the change of the read-out against control, counted positive when it falls. Consider `C[C@@H]1NC(=O)[C@@H]2CCCN2C(=O)[C@H](Cc2c[nH]cn2)NC(=O)[C@H](CO)NC(=O)[C@@H]2CSSC[C@@H](C(N)=O)NC(=O)[C@H](Cc3ccccc3)NC(=O)[C@H](Cc3ccc(O)cc3)NC(=O)[C@@H]3CCCN3C(=O)[C@H](CC(N)=O)NC(=O)[C@H](CC(N)=O)NC(=O)CNC(=O)[C@H](CO)NC(=O)[C@H](CSSC[C@H](NC(=O)CN)C(=O)N2)NC1=O` [Lt1.3-II] (H-GCCSHPACSGNNPYFC-NH2; disulfide 2-8, 3-16), for which the IC50 in test [1] is 44.8 nM; in [2] it was above 10 µM; in [3] it was above 10 µM; in [4] it was above 10 µM; in [5], above 10 µM; in test [6], above 10 µM. Moreover, the IC50 in [7] was above 10 µM; in test [8], above 10 µM; in [9], above 10000 nM. Further, the “selectivity index (SI)” value in test [1] was above 200. The inhibition at 10 µM in test [9] (HEK-293T, read-out: inhibition of peak current amplitude, SEM) is 3.2 ± 1.8%.
On to `CC[C@H](C)[C@@H]1NC(=O)[C@H](Cc2cnc[nH]2)NC(=O)[C@@H]2CCCN2C(=O)[C@H](CC(N)=O)NC(=O)[C@H](CC(N)=O)NC(=O)[C@H](C(C)C)NC(=O)[C@H](CC(N)=O)NC(=O)[C@@H]2CSSC[C@H](NC(=O)CN)C(=O)N[C@@H](CSSC[C@@H](C(N)=O)NC1=O)C(=O)N[C@@H](CO)C(=O)N[C@@H](Cc1cnc[nH]1)C(=O)N1CCC[C@H]1C(=O)N[C@@H](C)C(=O)N2` [RegIIA, reference compound] (H-GCCSHPACNVNNPHIC-NH2; disulfide 2-8, 3-16), for which the IC50 in test [1] is 34.5 nM; in test [10], above 1000 nM.
Regarding `CC[C@H](C)[C@@H]1NC(=O)[C@H](CCC(=O)O)NC(=O)[C@@H]2CCCN2C(=O)[C@H](Cc2cnc[nH]2)NC(=O)[C@H](CC(=O)O)NC(=O)[C@H](Cc2ccc(O)cc2)NC(=O)[C@H](CC(N)=O)NC(=O)[C@@H]2CSSC[C@H](NC(=O)CN)C(=O)N[C@@H](CSSC[C@@H](C(N)=O)NC1=O)C(=O)N[C@@H](CO)C(=O)N[C@@H](CC(=O)O)C(=O)N1CCC[C@H]1C(=O)N[C@@H](CCCNC(=N)N)C(=O)N2` [Vc1.1, reference compound], in test [9], 2.4 nM corresponded to half-maximal inhibition (IC50).
